According to PubChem BioAssay AID2060887 (Molecular Pharmacology Branch, DTP, NCI, 2025):

Tested on: 782815-120-R-J1-PDC complex spheroid viability
Assay: Anticancer human tumor 782815-120-R-J1-PDC patient-derived colon adenocarcinoma cell line growth inhibition [RAS]
Settings: for IC50: curve of first compound; for viability, T/C: stronger effect = lower value; active = viability on the fitted dose curve at most 10% of control; inactive = the rest
In short: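 Tumour cells grown as complex spheroids with HUVEC endothelial cells and mesenchymal stem cells, treated with RAS pathway inhibitor combinations. Each agent spans half-log steps from near clinical Cmax, or 10 microM where Cmax is unknown.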

[1] = second compound 0.000949 µM, first compound 0.0316 µM
[2] = second compound 0.000949 µM, first compound 0.1 µM
[3] = second compound 0.000949 µM, first compound 0.316 µM
[4] = second compound 0.000949 µM, first compound 1 µM
[5] = second compound 0.000949 µM, first compound 3.16 µM
[6] = second compound 0.000949 µM, first compound 10 µM
[7] = second compound 0.003 µM, first compound 0.0316 µM
[8] = second compound 0.003 µM, first compound 0.1 µM
[9] = second compound 0.003 µM, first compound 0.316 µM
[10] = second compound 0.003 µM, first compound 1 µM
[11] = second compound 0.003 µM, first compound 3.16 µM
[12] = second compound 0.003 µM, first compound 10 µM
[13] = second compound 0.00949 µM, first compound 0.0316 µM
[14] = second compound 0.00949 µM, first compound 0.1 µM
[15] = second compound 0.00949 µM, first compound 0.316 µM
[16] = second compound 0.00949 µM, first compound 1 µM
[17] = second compound 0.00949 µM, first compound 3.16 µM
[18] = second compound 0.00949 µM, first compound 10 µM
[19] = second compound 0.03 µM, first compound 0.0316 µM
[20] = second compound 0.03 µM, first compound 0.1 µM
[21] = second compound 0.03 µM, first compound 0.316 µM
[22] = second compound 0.03 µM, first compound 1 µM
[23] = second compound 0.03 µM, first compound 3.16 µM
[24] = second compound 0.03 µM, first compound 10 µM
[25] = second compound 0.0949 µM, first compound 0.0316 µM
[26] = second compound 0.0949 µM, first compound 0.1 µM
[27] = second compound 0.0949 µM, first compound 0.316 µM
[28] = second compound 0.0949 µM, first compound 1 µM
[29] = second compound 0.0949 µM, first compound 3.16 µM
[30] = second compound 0.0949 µM, first compound 10 µM
[31] = second compound 0.3 µM, first compound 0.0316 µM
[32] = second compound 0.3 µM, first compound 0.1 µM
[33] = second compound 0.3 µM, first compound 0.316 µM
[34] = second compound 0.3 µM, first compound 1 µM
[35] = second compound 0.3 µM, first compound 3.16 µM
[36] = second compound 0.3 µM, first compound 10 µM
[37] = second compound 0.000949 µM, first compound 0.00316 µM
[38] = second compound 0.000949 µM, first compound 0.01 µM
[39] = second compound 0.003 µM, first compound 0.00316 µM
[40] = second compound 0.003 µM, first compound 0.01 µM
[41] = second compound 0.00949 µM, first compound 0.00316 µM
[42] = second compound 0.00949 µM, first compound 0.01 µM
[43] = second compound 0.03 µM, first compound 0.00316 µM
[44] = second compound 0.03 µM, first compound 0.01 µM
[45] = second compound 0.0949 µM, first compound 0.00316 µM
[46] = second compound 0.0949 µM, first compound 0.01 µM
[47] = second compound 0.3 µM, first compound 0.00316 µM
[48] = second compound 0.3 µM, first compound 0.01 µM
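Also: spheroids exposed to compounds for 7 days before reading.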
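For viability, T/C in this document: 100% = DMSO vehicle control viability.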

CC(C)NCC(C(=O)N1CCN(c2ncnc3c2C(C)CC3O)CC1)c1ccc(Cl)cc1 (stereo not drawn) + CCn1c(-c2cccnc2C(C)OC)c2c3cc(ccc31)N1CCOC(CC(NC(=O)C(C(C)C)N(C)C(=O)C3(F)CCN(C(=O)C#CC(C)(C)N(C)C)CC3)C(=O)N3CCCC(N3)C(=O)OCC(C)(C)C2)C1
inactive: viability, T/C [1] 90.6% | viability, T/C [2] 90.6% | viability, T/C [3] 104% | viability, T/C [4] 88.8% | viability, T/C [5] 97.8% | viability, T/C [6] 104% | viability, T/C [7] 86.3% | viability, T/C [8] 98.3% | viability, T/C [9] 97% | viability, T/C [10] 91.5% | viability, T/C [11] 98.2% | viability, T/C [12] 97.5% | viability, T/C [13] 95.4% | viability, T/C [14] 95.9% | viability, T/C [15] 99.7% | viability, T/C [16] 93.3% | viability, T/C [17] 104% | viability, T/C [18] 104% | viability, T/C [19] 105% | viability, T/C [20] 90.6% | viability, T/C [21] 91.9% | viability, T/C [22] 94.9% | viability, T/C [23] 97.2% | viability, T/C [24] 96.7% | viability, T/C [25] 97.1% | viability, T/C [26] 97.2% | viability, T/C [27] 91.9% | viability, T/C [28] 95.1% | viability, T/C [29] 107% | viability, T/C [30] 101% | viability, T/C [31] 93.4% | viability, T/C [32] 93.8% | viability, T/C [33] 90.4% | viability, T/C [34] 93.2% | viability, T/C [35] 97.2% | viability, T/C [36] 92.4%
> 10000 nM: IC50 (second compound 0.000949 µM) | IC50 (second compound 0.003 µM) | IC50 (second compound 0.00949 µM) | IC50 (second compound 0.03 µM) | IC50 (second compound 0.0949 µM) | IC50 (second compound 0.3 µM)

CC(C)n1nc(-c2ccc3oc(N)nc3c2)c2c(N)ncnc21 + CCn1c(-c2cccnc2C(C)OC)c2c3cc(ccc31)N1CCOC(CC(NC(=O)C(C(C)C)N(C)C(=O)C3(F)CCN(C(=O)C#CC(C)(C)N(C)C)CC3)C(=O)N3CCCC(N3)C(=O)OCC(C)(C)C2)C1
inactive: viability, T/C (second compound 0.000949 µM, first compound 0.000316 µM) 88.2% | viability, T/C (second compound 0.000949 µM, first compound 0.001 µM) 90.7% | viability, T/C [37] 93% | viability, T/C [38] 88.2% | viability, T/C [1] 88.1% | viability, T/C [2] 76.3% | viability, T/C (second compound 0.003 µM, first compound 0.000316 µM) 91.5% | viability, T/C (second compound 0.003 µM, first compound 0.001 µM) 107% | viability, T/C [39] 91.7% | viability, T/C [40] 86.4% | viability, T/C [7] 84.8% | viability, T/C [8] 78.2% | viability, T/C (second compound 0.00949 µM, first compound 0.000316 µM) 94.8% | viability, T/C (second compound 0.00949 µM, first compound 0.001 µM) 102% | viability, T/C [41] 87.3% | viability, T/C [42] 94.3% | viability, T/C [13] 87.3% | viability, T/C [14] 70.7% | viability, T/C (second compound 0.03 µM, first compound 0.000316 µM) 87% | viability, T/C (second compound 0.03 µM, first compound 0.001 µM) 99.9% | viability, T/C [43] 94.1% | viability, T/C [44] 93.6% | viability, T/C [19] 106% | viability, T/C [20] 70.5% | viability, T/C (second compound 0.0949 µM, first compound 0.000316 µM) 87.7% | viability, T/C (second compound 0.0949 µM, first compound 0.001 µM) 95.2% | viability, T/C [45] 99.6% | viability, T/C [46] 83.7% | viability, T/C [25] 87.8% | viability, T/C [26] 78.8% | viability, T/C (second compound 0.3 µM, first compound 0.000316 µM) 90.9% | viability, T/C (second compound 0.3 µM, first compound 0.001 µM) 92.1% | viability, T/C [47] 86.1% | viability, T/C [48] 90.2% | viability, T/C [31] 90.6% | viability, T/C [32] 69.2%
> 100 nM: IC50 (second compound 0.000949 µM) | IC50 (second compound 0.003 µM) | IC50 (second compound 0.00949 µM) | IC50 (second compound 0.03 µM) | IC50 (second compound 0.0949 µM) | IC50 (second compound 0.3 µM)

CC(Nc1ccc2c(c1)OCCn1cc(N3C(=O)OCC3C(F)F)nc1-2)C(N)=O (stereo not drawn) + CCn1c(-c2cccnc2C(C)OC)c2c3cc(ccc31)N1CCOC(CC(NC(=O)C(C(C)C)N(C)C(=O)C3(F)CCN(C(=O)C#CC(C)(C)N(C)C)CC3)C(=O)N3CCCC(N3)C(=O)OCC(C)(C)C2)C1
> 10000 nM: IC50 (second compound 0.000949 µM) | IC50 (second compound 0.003 µM) | IC50 (second compound 0.00949 µM) | IC50 (second compound 0.03 µM) | IC50 (second compound 0.0949 µM) | IC50 (second compound 0.3 µM)
inactive: viability, T/C [1] 93.3% | viability, T/C [2] 93.9% | viability, T/C [3] 82.2% | viability, T/C [4] 95.2% | viability, T/C [5] 99.2% | viability, T/C [6] 81.4% | viability, T/C [7] 93.6% | viability, T/C [8] 94.5% | viability, T/C [9] 93% | viability, T/C [10] 90.8% | viability, T/C [11] 93.5% | viability, T/C [12] 97.5% | viability, T/C [13] 93.4% | viability, T/C [14] 101% | viability, T/C [15] 91.1% | viability, T/C [16] 95.4% | viability, T/C [17] 93.8% | viability, T/C [18] 90.8% | viability, T/C [19] 90.7% | viability, T/C [20] 97% | viability, T/C [21] 90.4% | viability, T/C [22] 89.9% | viability, T/C [23] 102% | viability, T/C [24] 93.2% | viability, T/C [25] 85.9% | viability, T/C [26] 95.3% | viability, T/C [27] 81% | viability, T/C [28] 98.9% | viability, T/C [29] 106% | viability, T/C [30] 94.8% | viability, T/C [31] 95.1% | viability, T/C [32] 92% | viability, T/C [33] 90% | viability, T/C [34] 82.8% | viability, T/C [35] 94.6% | viability, T/C [36] 87.3%

O=C(c1ccc(F)c(F)c1Nc1ccc(I)cc1F)N1CC(O)([C@@H]2CCCCN2)C1 + CCn1c(-c2cccnc2C(C)OC)c2c3cc(ccc31)N1CCOC(CC(NC(=O)C(C(C)C)N(C)C(=O)C3(F)CCN(C(=O)C#CC(C)(C)N(C)C)CC3)C(=O)N3CCCC(N3)C(=O)OCC(C)(C)C2)C1
53.4 nM: IC50 (second compound 0.003 µM)
46.1 nM: IC50 (second compound 0.0949 µM)
40.6 nM: IC50 (second compound 0.3 µM)
active: viability, T/C [4] 1.9% | viability, T/C [10] 2.12% | viability, T/C [16] 1.1% | viability, T/C [22] 1.32% | viability, T/C [28] 3.86% | viability, T/C [34] 0.95%
inactive: viability, T/C [37] 91.2% | viability, T/C [38] 74.1% | viability, T/C [1] 60% | viability, T/C [2] 35.2% | viability, T/C [3] 17% | viability, T/C [39] 85.9% | viability, T/C [40] 73.5% | viability, T/C [7] 60.6% | viability, T/C [8] 39.1% | viability, T/C [9] 16.4% | viability, T/C [41] 88% | viability, T/C [42] 74.6% | viability, T/C [13] 57.7% | viability, T/C [14] 34.5% | viability, T/C [15] 15.9% | viability, T/C [43] 79.2% | viability, T/C [44] 86.5% | viability, T/C [19] 55.3% | viability, T/C [20] 36.6% | viability, T/C [21] 14.8% | viability, T/C [45] 78.3% | viability, T/C [46] 73.4% | viability, T/C [25] 55.4% | viability, T/C [26] 36.5% | viability, T/C [27] 16.3% | viability, T/C [47] 81.3% | viability, T/C [48] 66.4% | viability, T/C [31] 56.3% | viability, T/C [32] 35.5% | viability, T/C [33] 14.2%
47.7 nM: IC50 (second compound 0.000949 µM)
51.9 nM: IC50 (second compound 0.03 µM)
45.5 nM: IC50 (second compound 0.00949 µM)
